Bridge positions count the residues as written; N and C are the ends. Ends that are not written are not given here.
Experiments:
[1] = molecular target: T1, δPKC (Homo sapiens, UniProt Q05655); experiment: Immunoblot of particulate vs total δPKC in tumor cells from treated mice; type: in vivo; conditions: treated for 5 weeks, vs control (FIG. 18E)
T1 construct: endogenous in cells; host or cells: PC3 human prostate cancer xenograft grown in nude mice
Method: (§1) Male nude mice were subcutaneously injected with human prostate cancer cells (PC3) at six weeks of age. […]
(§2) Tumor volumes were measured periodically (e.g., weekly). […] Angiogenesis and tumor cell proliferation were measured at six weeks by deuterium analyses using gas chromatography-mass spectrometry (GC-MS). Ribose derivatives extracted from DNA that incorporated deuterium during cell division can be identified by GC-MS and can be quantitated over total ribose from all DNA. This measurement allows the calculation of “newly synthesized DNA” during the deuterated water administration (i.e., pulse), from which the fractional turnover rate can be calculated using an exponential equation. Levels of tumor cell markers, angiogenesis-related polypeptides, and apoptosis-related proteins were evaluated by Western blot and immunohistochemistry. […]

[2] = tested on: Ki67; experiment: Ki67 staining of tumor tissue; type: in vivo, mice; conditions: vs saline
Method: Tumor tissue obtained from animals treated with a control saline solution or the δPKC activator peptide were stained with an antibody specific for Ki67 to detect proliferating cells in all phases of the cell cycle (i.e., G1, S-, G2-, and M-phase), but not in resting cells (G0-phase).
(§3) Tumor volumes were measured periodically (e.g., weekly). The mice were typically sacrificed after 5 weeks of treatment. Deuterated water was given to the animals about one week prior to sacrifice to facilitate the measurement of cell proliferation. Angiogenesis and tumor cell proliferation were measured at six weeks by deuterium analyses using gas chromatography-mass spectrometry (GC-MS). Ribose derivatives extracted from DNA that incorporated deuterium during cell division can be identified by GC-MS and can be quantitated over total ribose from all DNA. This measurement allows the calculation of “newly synthesized DNA” during the deuterated water administration (i.e., pulse), from which the fractional turnover rate can be calculated using an exponential equation. Levels of tumor cell markers, angiogenesis-related polypeptides, and apoptosis-related proteins were evaluated by Western blot and immunohistochemistry.

[3] = molecular target: T2, εPKC (Homo sapiens, UniProt Q02156); experiment: Immunoblot of particulate vs total εPKC in tumor cells from treated mice; type: in vivo; conditions: tumor cells from treated animals; vs control (FIG. 19E)
T2 construct: endogenous in cells; host or cells: PC3 human prostate cancer xenograft grown in nude mice
T2 sequence (Q02156 1-737): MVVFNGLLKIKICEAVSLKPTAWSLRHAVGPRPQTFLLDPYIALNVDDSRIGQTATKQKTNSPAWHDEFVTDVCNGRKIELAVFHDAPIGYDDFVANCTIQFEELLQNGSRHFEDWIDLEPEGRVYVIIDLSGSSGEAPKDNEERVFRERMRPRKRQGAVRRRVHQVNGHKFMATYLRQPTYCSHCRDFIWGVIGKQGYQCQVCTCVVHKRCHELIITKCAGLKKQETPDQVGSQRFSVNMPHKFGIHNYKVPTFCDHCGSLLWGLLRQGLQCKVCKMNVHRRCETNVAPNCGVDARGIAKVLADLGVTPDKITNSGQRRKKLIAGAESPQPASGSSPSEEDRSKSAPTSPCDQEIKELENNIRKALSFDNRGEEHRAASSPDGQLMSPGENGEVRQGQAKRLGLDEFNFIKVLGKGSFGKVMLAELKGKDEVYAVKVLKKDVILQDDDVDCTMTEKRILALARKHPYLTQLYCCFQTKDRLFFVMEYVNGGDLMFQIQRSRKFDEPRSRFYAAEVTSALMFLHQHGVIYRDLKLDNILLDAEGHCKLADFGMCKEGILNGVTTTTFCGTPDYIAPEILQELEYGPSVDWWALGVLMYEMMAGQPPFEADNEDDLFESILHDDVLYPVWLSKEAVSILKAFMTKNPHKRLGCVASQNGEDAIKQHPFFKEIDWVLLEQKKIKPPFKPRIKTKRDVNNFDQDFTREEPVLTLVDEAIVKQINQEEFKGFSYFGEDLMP
Method: as §1, §2

[4] = tested on: tumor cells (TC); experiment: Tumor cell proliferation, deuterium GC-MS fractional turnover; type: in vivo, mice
Method: as §3

[5] = tested on: vascular endothelial growth factor (VEGF); experiment: VEGF concentration in prostate cancer tumor cells (ELISA); type: in vivo, mice; conditions: three weeks of continuous treatment; vs saline
[6] = tested on: tumor cells (mixed cell populations); experiment: Apoptosis histology of tumor samples (TUNEL, Hoechst, cleaved caspase 3); type: in vivo, mice
Excerpt: (§4) Tumor cells (mixed cell populations) obtained from control and βIIPKC peptide inhibitor βIIV5-3-treated animals following 5-weeks of treatment were subjected to histological analysis to determine the effect of the βIIPKC peptide inhibitor on apoptosis (data not shown). CD31 is a tumor endothelial marker used to identify […] in a sample. CD31 (PECAM-1) has been implicated in angiogenesis, apoptosis, cell migration, modulation of integrin-mediated cell adhesion, transendothelial migration, negative regulation of immune cell signaling, autoimmunity, macrophage phagocytosis, IgE-mediated anaphylaxis, and thrombosis. […]
(§5) Tumor volumes were measured periodically (e.g., weekly). […] Angiogenesis and tumor cell proliferation were measured at six weeks by deuterium analyses using gas chromatography-mass spectrometry (GC-MS). Ribose derivatives extracted from DNA that incorporated deuterium during cell division can be identified by GC-MS and can be quantitated over total ribose from all DNA. This measurement allows the calculation of “newly synthesized DNA” during the deuterated water administration (i.e., pulse), from which the fractional turnover rate can be calculated using an exponential equation. Levels of tumor cell markers, angiogenesis-related polypeptides, and apoptosis-related proteins were evaluated by Western blot and immunohistochemistry.

[7] = tested on: HIF-1a; experiment: Immunoblot of HIF-1a in tumor cell homogenate, normalized for GAPDH; type: in vivo, mice; conditions: tumor cells, 5 weeks of treatment; vs saline, p<0.05 (FIG. 24E)
Excerpt: FIGS. 24A-24D show the results of immunoblot analysis total cell homogenate obtained from tumor cells from saline control (FIGS. 24 A and 24C) and δPKC activator (FIGS. 24 B and 24D) treated animals (5 weeks). The blots were probed with an antibody specific for hypoxia-inducible factors (HIF-1a, FIGS. 24A and 24B) or an antibody specific for GAPDH as a control (FIGS. 24C and 24D). FIG. 24E is a graph showing the relative levels of HIF-1a (normalized for GADPH) from FIGS. 24A-24D.
Tumor volumes were measured periodically (e.g., weekly). The mice were typically sacrificed after 5 weeks of treatment. […] Angiogenesis and tumor cell proliferation were measured at six weeks by deuterium analyses using gas chromatography-mass spectrometry (GC-MS). Ribose derivatives extracted from DNA that incorporated deuterium during cell division can be identified by GC-MS and can be quantitated over total ribose from all DNA. This measurement allows the calculation of “newly synthesized DNA” during the deuterated water administration (i.e., pulse), from which the fractional turnover rate can be calculated using an exponential equation. Levels of tumor cell markers, angiogenesis-related polypeptides, and apoptosis-related proteins were evaluated by Western blot and immunohistochemistry. […]

[8] = tested on: human prostate cancer cells (PC3); experiment: PC3 prostate tumor xenograft growth in nude mice, osmotic pump delivery; type: in vivo
Excerpt: Male nude mice were subcutaneously injected with human prostate cancer cells (PC3) at six weeks of age. After one week, the animals were implanted with an ALZEJ® (Alza Corporation, Mountain View, Calif.) osmotic pump for delivery of a control saline solution, a control peptide of TAT (residues 47-57, Y[…] ID NO:85), or an inhibitor or activator of PKC (e.g., δV1-1 attached to TAT (YGRKKRRQRRR-CC-SFNSYELGSL; SEQ ID NO: 143), δV1-7 attached to TAT (YGRKKRRQRRR-CC-MRAAEDPM; SEQ ID NO: 144), or βIIV5-3 attached to TAT (YGRKKRRQRRR-CC-QEVIRN; SEQ ID NO: 145). The rate of administration was 0.5 μl/hr, unless otherwise noted. Typical inhibitor or activator concentrations were 3-30 mM. In some cases, a lower concentration was administered initially (e.g., 3 mM) followed by a higher concentration (e.g., 30 mM) in the later weeks of treatment.
as §3

[9] = tested on: CD31; experiment: CD31 staining of tumor samples (tumor vessels); type: in vivo, mice; conditions: 5 weeks of treatment; vs control animals
Excerpt: as §4, §5

[10] = tested on: tumor endothelial cells (TEC); experiment: Tumor endothelial cell proliferation, deuterium GC-MS fractional turnover; type: in vivo, mice; conditions: three weeks of continuous treatment; vs saline
Method: Tumor volumes were measured periodically (e.g., weekly). […] Deuterated water was given to the animals about one week prior to sacrifice to facilitate the measurement of cell proliferation. Angiogenesis and tumor cell proliferation were measured at six weeks by deuterium analyses using gas chromatography-mass spectrometry (GC-MS). Ribose derivatives extracted from DNA that incorporated deuterium during cell division can be identified by GC-MS and can be quantitated over total ribose from all DNA. This measurement allows the calculation of “newly synthesized DNA” during the deuterated water administration (i.e., pulse), from which the fractional turnover rate can be calculated using an exponential equation. Levels of tumor cell markers, angiogenesis-related polypeptides, and apoptosis-related proteins were evaluated by Western blot and immunohistochemistry.

T1 sequence (Q05655 whole entry): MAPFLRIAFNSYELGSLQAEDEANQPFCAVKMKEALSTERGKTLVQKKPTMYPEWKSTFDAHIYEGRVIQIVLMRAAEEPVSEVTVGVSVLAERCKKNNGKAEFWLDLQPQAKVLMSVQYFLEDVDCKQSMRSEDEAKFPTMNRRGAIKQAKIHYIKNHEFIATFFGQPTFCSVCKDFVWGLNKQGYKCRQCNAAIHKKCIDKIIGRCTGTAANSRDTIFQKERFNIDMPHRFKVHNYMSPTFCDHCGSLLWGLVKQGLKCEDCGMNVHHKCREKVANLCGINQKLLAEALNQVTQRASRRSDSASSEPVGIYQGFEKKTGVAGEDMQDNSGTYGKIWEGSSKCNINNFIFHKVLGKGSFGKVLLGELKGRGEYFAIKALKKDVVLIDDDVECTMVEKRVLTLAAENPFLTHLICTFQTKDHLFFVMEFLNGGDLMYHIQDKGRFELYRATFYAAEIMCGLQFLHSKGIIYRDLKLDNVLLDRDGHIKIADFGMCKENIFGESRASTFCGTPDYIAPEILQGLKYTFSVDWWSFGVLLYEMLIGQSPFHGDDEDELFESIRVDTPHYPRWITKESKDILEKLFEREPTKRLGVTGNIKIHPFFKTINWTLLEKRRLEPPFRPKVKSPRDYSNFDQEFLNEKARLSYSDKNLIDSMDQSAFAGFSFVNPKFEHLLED

δV1-7: activator of δPKC, amino acid sequence MRAAEDPM (SEQ ID NO: 146), attached to TAT (YGRKKRRQRRR-CC-MRAAEDPM; SEQ ID NO: 144) (YGRKKRRQRRRCCMRAAEDPM; disulfide 12-13 (inferred))
levels of particulate δPKC compared to total δPKC [1]: approximately doubled
Ki67 staining (proliferating cells) [2]: increased Ki67 staining
levels of particulate εPKC compared to total εPKC [3]: do not substantially change
rate of tumor cell proliferation ([4]; 5 weeks of treatment (end-stage), vs saline (FIG. 22)): substantial increase
rate of tumor cell (TC) proliferation, fractional turnover per day ([4]; three weeks of continuous treatment, vs saline): appeared to decrease
concentration of VEGF in prostate cancer tumor cells [5]: not increased
percentage of cells stained by TUNEL labeling ([6]; mixed tumor cell population, 5 weeks of treatment, vs saline (FIG. 26)): increased TUNEL labeling only slightly
tumor volume as a function of the percent of TUNEL-positive cells ([6]; vs saline control animals (FIG. 27A-27C)): larger tumor volumes for a given percent of TUNEL-positive cells
levels of HIF-1a normalized for GAPDH [7]: several-fold increase
tumor mass ([8]; 3 weeks of treatment, vs saline (FIG. 25C)): decreased
tumor volume ([8]; continuous treatment, vs saline and Tat control groups, p=0.004 (FIG. 20)): significantly increased tumor volume
tumor volume ([8]; three weeks of treatment, peptide conjugated to TAT, vs TAT control (FIG. 17)): increase in tumor volume
CD31 staining (tumor vascularization) [9]: several-fold increase
rate of tumor endothelial cell (TEC) proliferation, fractional turnover per day [10]: similar
